Test results published in US20070154540A1 (KMSI CO., LTD., priority 2003, published 2007).

Legend:
COX-2 = assay: Western blotting of COX-2 expression in LPS-treated RAW 264.7; type: cell-based, mice; conditions: LPS treatment = 100%, upon apigenin treatment
Method: (§1) A macrophage cell line derived from mice, RAW 264.7 (KCLB 40071), was purchased from the Korean Cell Line Bank. RAW 264.7 cells were seeded in a density of 3×10^6 cells onto 60-mm culture dishes containing DMEM (Dulbecco's Modified Eagle Medium, 12800-017, Gibco) supplemented with 10% FBS (fetal bovine serum, 26140-079, Gibco), 100 U/ml of penicillin and 100 μg/ml streptomycin (15140-122, Gibco), and cultured at 37° C. under 5% CO2 and humidity for 24 hrs. To induce NO production, RAW 264.7 cells were treated with 500 ng/ml of an E. coli cell wall component, lipopolysaccharide (LPS, L2654, Sigma). […] Herein, LPS was dissolved in distilled water, and apigenin was dissolved in DMSO. Then, the culture medium and a Griess reagent were mixed at a ratio of 1:1 (100 μl: 100 μl) and allowed to stand at room temperature for 10 min. Thereafter, absorbance was measured at 540 nm using a spectrophotometer (Power Wave X340, Bio-Tek).
RAW 264.7 cells were treated under the same conditions as in Example 12. […] Herein, for IκBα expression, the cells were treated with LSP for only two hours. […] After protein concentrations in cell lysates were measured, […] protein samples were separated on an 8-16% SDS (sodium dodecyl sulfate) polyacrylamide gel (EC60452, NOVEX). […]

[1] = system: osteoarthritis-induced New Zealand white rabbits; assay: Proteoglycan levels in joint synovial fluids (1,9-dimethylmethylene blue assay); type: in vivo
Source text: (§2) To prepare an osteoarthritis animal model, New Zealand white rabbits underwent anterior cruciate ligament transection (ACLT) in joints of their two hind legs. After three days, the rabbits were forced to sustain movement for four weeks in a space of 5×5 m^3 to induce substantial osteoarthritis. […] The following Examples 3 to 10 were all performed using joints of the osteoarthritis-induced New Zealand white rabbits prepared as in this Example 2.
In the joint synovial fluids prepared in Example 3, proteoglycan levels were measured using a 1,9-dimethylmethylene blue assay (Houselmann H. J. et al., Am. J. Physiol. 271:C742-752, (1996)). A synovial fluid sample of 50 μl was mixed with 250 μl of 1,9-dimethylmethylene blue (34,108-8, Aldrich), and absorbance was measured at 530 nm using a spectrophotometer (Power Wave X340, Bio-Tek).

RAW 264.7 cells = assay: LPS-induced NO production of macrophages (Griess); type: cell-based, mice; conditions: 16 hrs, LPS alone 40, non-treated 2
Method: as §1, with “[…],” for “L2654,”

[2] = system: osteoarthritis-induced New Zealand white rabbits; assay: Total protein levels in joint synovial fluids (Bradford); type: in vivo
Source text: as §2
As cartilage is destroyed with the progress of osteoarthritis, proteins contained therein are released into synovial fluids. With this respect, total protein levels were measured in synovial fluids. Using the joint synovial fluids prepared in Example 3, total protein levels in synovial fluids were measured using a Bradford method. 50 μl of a synovial fluid was mixed with 200 μl of a protein analysis reagent (500-0006, Bio-Rad) and allowed to stand at room temperature for 5 min, and absorbance was then measured at 595 nm.

[3] = system: osteoarthritis-induced New Zealand white rabbits; assay: Visual observation of joint cartilage in ACLT osteoarthritis-induced rabbits; type: in vivo
Source text: To prepare an osteoarthritis animal model, New Zealand white rabbits underwent anterior cruciate ligament transection (ACLT) in joints of their two hind legs. […] The following Examples 3 to 10 were all performed using joints of the osteoarthritis-induced New Zealand white rabbits prepared as in this Example 2. […] In contrast, in the PBS control group, the surface of joint cartilage was very rough due to the damage of the joint cartilage.

cancer cells = conditions: background statement; cited from earlier work
[4] = apigenin-treated right leg (+), four weeks after drug injection
[5] = apigenin-treated right leg (+), four weeks after drug injection, listed as Apigenin
[6] = apigenin-treated right leg (+), two weeks after drug injection
[7] = non-treated left leg (−) of apigenin treatment group, four weeks after drug injection
[8] = non-treated left leg (−) of apigenin treatment group, two weeks after drug injection

Question: With `O=c1cc(-c2ccc(O)cc2)oc2cc(O)cc(O)c12` [apigenin, 4′,5,7-trihydroxyflavone] as the molecule, how does the COX-2 expression level (COX-2) read?
Answer: The COX-2 expression level was 0%.

Question: And the “Proteoglycan levels in joint synovial fluids” value (“Proteoglycan levels” for short) [1, 4]?
Answer: Its value is “about 12.22 μg/ml”.

Question: What about the “Proteoglycan levels” value [1, 5] of the same molecule?
Answer: The value was 12.22 ± 0.4 µg/mL.

Question: And the “Proteoglycan levels” value [1, 6]?
Answer: The value was 10.32 ± 0.66 µg/mL.

Question: And the “Proteoglycan levels” value [1, 7]?
Answer: The value was 34.09 ± 0.24 µg/mL.

Question: And the “Proteoglycan levels” value [1, 8]?
Answer: Its value is 22.90 ± 0.86 µg/mL.

Question: And the Nitrite (RAW 264.7 cells; LPS 500 ng/ml + apigenin 10 μM)?
Answer: The Nitrite was 32.2 µM.

Question: And the Nitrite (RAW 264.7 cells; LPS 500 ng/ml + apigenin 20 μM)?
Answer: Its Nitrite is 22.2 µM.

Question: And the Nitrite (RAW 264.7 cells; LPS 500 ng/ml + apigenin 40 μM)?
Answer: The Nitrite was 10.1 µM.

Question: And the Nitrite (RAW 264.7 cells; LPS 500 ng/ml + apigenin 80 μM)?
Answer: The Nitrite was 9 µM.

Question: And the “Total protein levels in joint synovial fluids” value (from here on “Total protein levels”) [2, 4]?
Answer: The value was “about 24.91 mg/ml”.

Question: What about the “Total protein levels” value [2, 5] of the same molecule?
Answer: Its value is 24.91 ± 0.35 mg/mL.

Question: And the “Total protein levels” value [2, 6]?
Answer: Its value is 16.64 ± 0.3 mg/mL.

Question: What about the “Total protein levels” value [2, 7] of the same molecule?
Answer: Its value is 36.37 ± 0. mg/ml.

Question: And the “Total protein levels” value [2, 8]?
Answer: Its value is 20.36 ± 0.69 mg/mL.

Question: And the “surface of joint cartilage (visual)” value ([3]; apigenin-treated right joint, 50 μg once per week for four weeks)?
Answer: The value was “visually smooth”.

Question: What about the “cartilage in the left joint of the test group (visual)” value ([3]; non-treated left joint of apigenin group) of the same molecule?
Answer: Its value is “improved to some extent”.

Question: What about the “concentration at which apigenin acts effectively (anticancer activity)” value (cancer cells) of the same molecule?
Answer: Its value is “lower than 50 μM”.
